Measurements: patent US20260256753A1, “USE OF AN OREXIN 2 RECEPTOR AGONIST FOR IMPROVING RESPIRATORY FUNCTION DURING SLEEP” (TAKEDA PHARMACEUTICAL COMPANY LIMITED, priority 2023, published 2026)

System: patients with obstructive sleep apnea
Assay: Phase 1b crossover study in obstructive sleep apnea: upper airway collapsibility index (UACI) during wakefulness
Type: in vivo, human
Procedure: A phase 1b, randomized, double-blind, placebo-controlled, 3-period crossover study was conducted to evaluate the safety, tolerability, pharmacodynamic, and pharmacokinetic effects of overnight intravenous COMPOUND A in patients with obstructive sleep apnea (OSA). This study was planned to further evaluate COMPOUND A intravenous administration (IV) in adults with OSA, hypothesizing that nonwake-promoting exposures of COMPOUND A would increase genioglossal muscle tone and increase airway patency via the increasing activity of hypoglossal motoneurons. The main goal of this study was to evaluate the mechanistic potential of OX2R agonism for treatment of OSA using COMPOUND A IV infusion to determine appropriate use in future trials with an oral OX2R agonist.
Eligible participants were randomly assigned (in a double-blinded manner) to 1 of 6 treatment sequences. In each treatment period, participants underwent 3 UACI assessments, a 10-minute evaluation that tested the key biological mechanism that causes OSA (as described by Osman, A. M., et al., 2019, Sleep, 42 (7), 1-10), followed by an overnight polysomnography (PSG). After the first baseline UACI assessment (U1), an IV infusion regimen of COMPOUND A or placebo was administered over approximately 10 hours to achieve specific plasma concentrations to evaluate the effect of COMPOUND A on the UACI and PSG metrics. […]

COC(=O)N1CCC[C@H](NS(C)(=O)=O)[C@@H]1CO[C@H]1CC[C@@H](c2ccccc2)CC1 (relative stereo) [Compound A, methyl(2R,3S)-3-((methylsulfonyl)amino)-2-(((cis-4-phenylcyclohexyl)oxy)methyl) piperidine-1-carboxylate]
upper airway collapsibility as measured by UACI: no consistent improvement
